System: SW 982 tumor spheroid viability
Experiment: Anticancer human tumor SW 982 cell line growth inhibition;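 further: spheroids exposed to compound for 7 days before readout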
Details: spheroids with HUVEC and MSC; for IC50: curve of first compound; for viability, T/C: stronger effect = lower value
In short: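 Single agents and combinations were tested on spheroids built from tumor cells plus HUVEC and hMSC, at half-log dilutions starting at or near clinical Cmax, else 10 microM; final DMSO 0.25% (v/v).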

[1] = second compound 1 µM, first compound 0.0316 µM
[2] = second compound 1 µM, first compound 0.1 µM
[3] = second compound 1 µM, first compound 0.316 µM
[4] = second compound 1 µM, first compound 1 µM
[5] = second compound 1 µM, first compound 3.16 µM
[6] = second compound 1 µM, first compound 10 µM
[7] = second compound 3.16 µM, first compound 0.0316 µM
[8] = second compound 3.16 µM, first compound 0.1 µM
[9] = second compound 3.16 µM, first compound 0.316 µM
[10] = second compound 3.16 µM, first compound 1 µM
[11] = second compound 3.16 µM, first compound 3.16 µM
[12] = second compound 3.16 µM, first compound 10 µM
[13] = second compound 10 µM, first compound 0.0316 µM
[14] = second compound 10 µM, first compound 0.1 µM
[15] = second compound 10 µM, first compound 0.316 µM
[16] = second compound 10 µM, first compound 1 µM
[17] = second compound 10 µM, first compound 3.16 µM
[18] = second compound 10 µM, first compound 10 µM
[19] = second compound 31.6 µM, first compound 0.0316 µM
[20] = second compound 31.6 µM, first compound 0.1 µM
[21] = second compound 31.6 µM, first compound 0.316 µM
[22] = second compound 31.6 µM, first compound 1 µM
[23] = second compound 31.6 µM, first compound 3.16 µM
[24] = second compound 31.6 µM, first compound 10 µM
[25] = second compound 100 µM, first compound 0.0316 µM
[26] = second compound 100 µM, first compound 0.1 µM
[27] = second compound 100 µM, first compound 0.316 µM
[28] = second compound 100 µM, first compound 1 µM
[29] = second compound 100 µM, first compound 3.16 µM
[30] = second compound 100 µM, first compound 10 µM

CC(C)n1c(=O)n(C)c2cnc3cc(F)c(-c4ccc(OCCCN5CCCCC5)nc4)cc3c21 + Cn1nnc2c(C(N)=O)ncn2c1=O
IC50 (second compound 1 µM): > 10 µM
IC50 (second compound 3.16 µM): 7.44 µM
IC50 (second compound 10 µM): 4.91 µM
IC50 (second compound 31.6 µM): 3.72 µM
IC50 (second compound 100 µM): 1.88 µM
viability, T/C [1]: 91.7%
viability, T/C [2]: 91.3%
viability, T/C [3]: 91.5%
viability, T/C [4]: 85.4%
viability, T/C [5]: 68.1%
viability, T/C [6]: 56.7%
viability, T/C [7]: 91%
viability, T/C [8]: 84%
viability, T/C [9]: 85.8%
viability, T/C [10]: 84.2%
viability, T/C [11]: 66.4%
viability, T/C [12]: 44.3%
viability, T/C [13]: 75.2%
viability, T/C [14]: 75.5%
viability, T/C [15]: 78.5%
viability, T/C [16]: 72.7%
viability, T/C [17]: 55.8%
viability, T/C [18]: 40.6%
viability, T/C [19]: 68.3%
viability, T/C [20]: 70%
viability, T/C [21]: 68.8%
viability, T/C [22]: 62%
viability, T/C [23]: 52.5%
viability, T/C [24]: 35%
viability, T/C [25]: 55.1%
viability, T/C [26]: 57.4%
viability, T/C [27]: 55.2%
viability, T/C [28]: 54%
viability, T/C [29]: 46.4%
viability, T/C [30]: 37%

CC1COCCN1c1cc(-c2ccnn2C)c2ccnc(-c3ccn[nH]3)c2n1 (stereo not given) + Cn1nnc2c(C(N)=O)ncn2c1=O
IC50 (second compound 1 µM): < 0.0316 µM
IC50 (second compound 3.16 µM): < 0.0316 µM
IC50 (second compound 10 µM): < 0.0316 µM
IC50 (second compound 31.6 µM): < 0.0316 µM
IC50 (second compound 100 µM): < 0.0316 µM
viability, T/C [1]: 32.4%
viability, T/C [2]: 20.4%
viability, T/C [3]: 17.3%
viability, T/C [4]: 15.4%
viability, T/C [5]: 19.2%
viability, T/C [6]: 23%
viability, T/C [7]: 26.9%
viability, T/C [8]: 17%
viability, T/C [9]: 15.8%
viability, T/C [10]: 17%
viability, T/C [11]: 19.7%
viability, T/C [12]: 22.5%
viability, T/C [13]: 21.1%
viability, T/C [14]: 16.6%
viability, T/C [15]: 13%
viability, T/C [16]: 13.3%
viability, T/C [17]: 22.9%
viability, T/C [18]: 20.3%
viability, T/C [19]: 20.6%
viability, T/C [20]: 15.8%
viability, T/C [21]: 13.1%
viability, T/C [22]: 11.8%
viability, T/C [23]: 12.5%
viability, T/C [24]: 18.2%
viability, T/C [25]: 15%
viability, T/C [26]: 12.8%
viability, T/C [27]: 10.3%
viability, T/C [28]: 9.31%
viability, T/C [29]: 11.1%
viability, T/C [30]: 14.6%

COc1cc(C)[nH]c(=O)c1CN1CCc2c(Cl)cc(C(OC)C3COC3)c(Cl)c2C1=O (stereo not given) + Cn1nnc2c(C(N)=O)ncn2c1=O
IC50 (second compound 1 µM): > 10 µM
IC50 (second compound 3.16 µM): > 10 µM
IC50 (second compound 10 µM): > 10 µM
IC50 (second compound 31.6 µM): > 10 µM
IC50 (second compound 100 µM): > 10 µM
viability, T/C [1]: 101%
viability, T/C [2]: 103%
viability, T/C [3]: 103%
viability, T/C [4]: 113%
viability, T/C [5]: 101%
viability, T/C [6]: 99.7%
viability, T/C [7]: 94.3%
viability, T/C [8]: 92.4%
viability, T/C [9]: 96%
viability, T/C [10]: 102%
viability, T/C [11]: 100%
viability, T/C [12]: 93.1%
viability, T/C [13]: 81.8%
viability, T/C [14]: 83.5%
viability, T/C [15]: 86.2%
viability, T/C [16]: 88.3%
viability, T/C [17]: 85.8%
viability, T/C [18]: 78.3%
viability, T/C [19]: 71.1%
viability, T/C [20]: 71.7%
viability, T/C [21]: 70.4%
viability, T/C [22]: 78.8%
viability, T/C [23]: 70%
viability, T/C [24]: 69.1%
viability, T/C [25]: 58.6%
viability, T/C [26]: 62.3%
viability, T/C [27]: 65%
viability, T/C [28]: 64.3%
viability, T/C [29]: 64.6%
viability, T/C [30]: 61.9%

COc1ccc([C@@H](O)c2cc(-c3ncnc4cc(N5CCOCC5)ccc34)c(F)cc2Cl)nn1 + Cn1nnc2c(C(N)=O)ncn2c1=O
IC50 (second compound 1 µM): 6.29 µM
IC50 (second compound 3.16 µM): 3.83 µM
IC50 (second compound 10 µM): 4.03 µM
IC50 (second compound 31.6 µM): 1.18 µM
IC50 (second compound 100 µM): 0.283 µM
viability, T/C [1]: 90.6%
viability, T/C [2]: 95.4%
viability, T/C [3]: 93.3%
viability, T/C [4]: 84.9%
viability, T/C [5]: 81.6%
viability, T/C [6]: 29.6%
viability, T/C [7]: 76.7%
viability, T/C [8]: 83.8%
viability, T/C [9]: 90.1%
viability, T/C [10]: 70.4%
viability, T/C [11]: 55.9%
viability, T/C [12]: 26%
viability, T/C [13]: 76.9%
viability, T/C [14]: 70%
viability, T/C [15]: 73%
viability, T/C [16]: 57.6%
viability, T/C [17]: 63.2%
viability, T/C [18]: 18.4%
viability, T/C [19]: 63.5%
viability, T/C [20]: 63.2%
viability, T/C [21]: 60.4%
viability, T/C [22]: 51.5%
viability, T/C [23]: 38.5%
viability, T/C [24]: 25.5%
viability, T/C [25]: 59.9%
viability, T/C [26]: 57.9%
viability, T/C [27]: 48.1%
viability, T/C [28]: 39.3%
viability, T/C [29]: 32.5%
viability, T/C [30]: 15.6%
